Experimental data published in article PMC5397431, “Multigeneration toxicity of imidacloprid and thiacloprid to Folsomia candida” (Ecotoxicology (London, England), 2017).
Several values for one entry are separate records, joined by “and”; a condition that tells them apart may be missing. Identical values can stand only once. Like-named read-outs stand apart in the source and are kept apart here.

Legend:
Folsomia candida [1] = assay: Multigeneration toxicity test (survival and reproduction) with springtails in spiked LUFA 2.2 soil; assay type: in vivo; conditions: for EC50: number of juveniles
Procedure: F. candida were taken from cultures at the Department of Ecological Science at the Vrije Universiteit in Amsterdam. To obtain age-synchronized animals, adults from the culture were separated in boxes with a layer of plaster of Paris over a period of 2–3 days to lay eggs, after which they were removed. After removal of the adults, the eggs were incubated under a 12 h light/12 h dark regime at 20 °C and 75% relative humidity, where they hatched and grew. Juveniles of 10–12 days old were used for testing.
All tests were performed in the natural standard LUFA 2.2 (Lufa Speyer, Germany), a loamy sand with 1.59 ± 0.13% organic carbon, pH in 0.01 M CaCl2 of 5.4 ± 0.2, and water holding capacity (WHC) of 43.5 ± 2.8% of its dry weight.
Pure imidacloprid and thiacloprid (purity 98%) were kindly provided by Bayer CropScience, Monheim, Germany. Test concentrations of imidacloprid and thiacloprid were based on the results of earlier tests. Stock solution of both compounds in water were prepared, to spike the chemicals into the soil and at the same time bringing moisture content to the desired level of 50% of the WHC. To ensure complete thiacloprid dissolution, a small amount of acetone was added to the stock solution. This stock solution was used to spike soil with the highest test concentration and further diluted for spiking soil with the lower concentrations tested. Considering the low amount of acetone needed to make thiacloprid completely dissolve, no attempts were made to correct for that by adding acetone to the lower concentrations and control in the multigeneration test. All soils were thoroughly mixed to achieve a homogenous distribution of the test chemicals in the test soil.
Multigeneration tests started with a control, […] imidacloprid (0, 0.001, 0.003, 0.01, 0.03, 0.1, 0.3, 1.0 mg/kg dry soil) and 9 thiacloprid concentrations (0, 0.0015, 0.0045, 0.014, 0.041, 0.11, 0.31, 1.1, 3.3, 10.0 mg/kg dry soil). Batches of soil sufficient to perform three toxicity tests were prepared. After filling test jars for the parent generation exposure, the remaining spiked soil was stored in glass jars in a climate room at 20 °C for subsequent exposure of the next two generations. Moisture content of the spiked soil was checked regularly by weighing the jars, and replenished by adding deionized water if needed.
After 28 days (35 days for the second generation), the juveniles from the same exposure concentration were pooled in the same container with a moist plaster of Paris bottom and incubated overnight before being transferred to the next cycle of exposure. This experiment spanned a total of three continuous generations (referred to as F0, F1, and F2).

honeybees = test system: honeybees; set-up: method as in Iwasa et al. (2004); conditions: acute dermal exposure; ref Iwasa et al. (2004); cited from earlier work
Folsomia candida [2] = conditions: cited from earlier work
Aphis gossypii = test system: Aphis gossypii; set-up: method as in Shi et al. (2011); conditions: exposed dermally for 48 h; ref Shi et al. (2011); cited from earlier work
Folsomia candida [3] = assay: Literature data on toxicity to Folsomia candida in soil; assay type: in vivo; conditions: 28-day, artificial soil; 10% OM (sphagnum peat), pure; recalculated with logistic dose-response model from figures; ref Reynolds (2008)
From the text: The LC50 and EC50 values for the toxicity of imidacloprid found in this study are within the range set by previous studies in our lab (Table S3). The values reported by Idinger ([2002]) for the toxicity of imidacloprid in the commercial formulation Confidor 70WP, tested in artificial soil, also are in the same range. Some LC50s reported in the literature, however, are somewhat higher, which could be explained by several factors. […] The use of an artificial soil with higher OM contents probably also explains the somewhat higher LC50 and EC50 values reported by Reynolds ([2008]). […] For two commercial formulations, EFSA ([2008]) found lower NOECs of 0.2–0.32 mg a.s./kg. Laboratory conditions such as temperature and light/dark regime may affect the metabolism of test animals, leading to differential toxicity of imidacloprid.
Table S3. Overview of data on the toxicity of imidacloprid and thiacloprid to Folsomia candida. All LC50 and EC50 values are in mg/kg dry soil and all tests were carried out on a 28-day exposure period. OM = organic matter.

[4] = F0 generation, 28 days, LUFA 2.2 soil, nominal concentrations
[5] = F1 generation, 35 days, soil spiked at start of F0, nominal concentrations
[6] = F2 generation, 28 days, soil spiked at start of F0, nominal concentrations
[7] = range over the three generations, Lufa 2.2, pure compound, this study
[8] = 28-day exposure, Lufa 2.2, ~3.0% OM, pure, ref De Lima e Silva et al. (submitted)
[9] = artificial soil, 10% OM, based on regression analysis, ref Reynolds (2008)

O=[N+]([O-])NC1=NCCN1Cc1ccc(Cl)nc1 [Imidacloprid, imidacloprid]
NOEC (Folsomia candida [1]; [4]): 0.1 mg/kg dry soil and 0.10 mg/kg dry soil
LC50 (Folsomia candida [1]; F0 generation, 28 days, adult survival, LUFA 2.2 soil, nominal concentrations): 0.44 mg/kg dry soil
EC50 (Folsomia candida [1]; [4]): 0.29 mg/kg dry soil
EC50 (Folsomia candida [1]; [5]): 0.12 mg/kg dry soil
LC50 (Folsomia candida [1]; [5]): 0.39 mg/kg dry soil
NOEC (Folsomia candida [1]; [5]): 0.1 mg/kg dry soil and 0.10 mg/kg dry soil
EC50 (Folsomia candida [1]; [6]): 0.14 mg/kg dry soil
LC50 (Folsomia candida [1]; [6]): 0.21 mg/kg dry soil
NOEC (Folsomia candida [1]; [6]): 0.1 mg/kg dry soil and 0.10 mg/kg dry soil
EC10 (Folsomia candida [1]; Folsomia candida, in vivo, 35 days, pH 5.4): 0.080 mg/kg dry soil
EC50, range over generations (Folsomia candida [1]; [7]): 0.12–0.29 mg/kg dry soil
LC50, range over generations (Folsomia candida [1]; [7]): 0.21–0.44 mg/kg dry soil
times more toxic than thiacloprid (honeybees): about 800 times
EC50 (Folsomia candida [2]; [8]): 0.097-0.30 mg/kg dry soil
LC50 (Folsomia candida [2]; [8]): 0.20-0.65 mg/kg dry soil
NOEC (Folsomia candida [2]; active substance, ref EFSA (2008)): 1.25 mg/kg dry soil
EC50 reported by Reynolds (Folsomia candida [2]; [9]): 0.60 mg/kg
LC50 reported by Reynolds (Folsomia candida [2]; [9]): 1.38 mg/kg
times more sensitive than to thiacloprid (Aphis gossypii): about 7.5 times
EC50, recalculated (Folsomia candida [3]): 0.26^& mg/kg dry soil
LC50, recalculated (Folsomia candida [3]): 0.86^& mg/kg dry soil
